Measurements: ChEMBL document CHEMBL4699568, “Crystal structure of Leishmania mexicana cysteine protease B in complex with a high-affinity azadipeptide nitrile inhibitor” (Bioorg Med Chem, 2020)

Legend:
Leishmania mexicana [1] = test: Inhibition of Leishmania mexicana CPB delta CTE mutant assessed as off rate constant
Procathepsin L [2] = biological target: T1, Procathepsin L (Homo sapiens, UniProt P07711); test: Inhibition of human cathepsin L using Z-Phe-Arg-7-amido-4-methylcoumarin as substrate preincubated for 2 mins followed by substrate addition by fluorimetric assay
T1 sequence (P07711 whole entry): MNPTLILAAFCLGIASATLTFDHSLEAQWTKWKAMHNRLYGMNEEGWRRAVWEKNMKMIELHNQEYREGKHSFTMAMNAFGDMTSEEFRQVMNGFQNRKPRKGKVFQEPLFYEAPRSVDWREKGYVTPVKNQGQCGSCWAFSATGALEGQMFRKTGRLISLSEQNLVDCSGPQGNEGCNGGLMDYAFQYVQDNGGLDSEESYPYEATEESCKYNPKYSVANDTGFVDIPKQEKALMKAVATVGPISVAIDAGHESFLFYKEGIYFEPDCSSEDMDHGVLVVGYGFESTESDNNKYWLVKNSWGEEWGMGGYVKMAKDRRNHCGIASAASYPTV

[3] = Inhibition of Leishmania mexicana CPB delta CTE mutant using Z-Phe-Arg-7-amido-4-methylcoumarin as substrate preincubated for 2 mins followed by substrate addition by fluorimetric assay
Leishmania mexicana [4] = test: Inhibition of Leishmania mexicana CPB delta CTE mutant assessed as on rate constant
Cruzipain = Cruzipain (Trypanosoma cruzi, UniProt P25779); test: Inhibition of recombinant Trypanosoma cruzi cruzain using Z-Phe-Arg-7-amido-4-methylcoumarin as substrate preincubated for 2 mins followed by substrate addition by fluorimetric assay
Cruzipain, sequence (P25779 whole entry): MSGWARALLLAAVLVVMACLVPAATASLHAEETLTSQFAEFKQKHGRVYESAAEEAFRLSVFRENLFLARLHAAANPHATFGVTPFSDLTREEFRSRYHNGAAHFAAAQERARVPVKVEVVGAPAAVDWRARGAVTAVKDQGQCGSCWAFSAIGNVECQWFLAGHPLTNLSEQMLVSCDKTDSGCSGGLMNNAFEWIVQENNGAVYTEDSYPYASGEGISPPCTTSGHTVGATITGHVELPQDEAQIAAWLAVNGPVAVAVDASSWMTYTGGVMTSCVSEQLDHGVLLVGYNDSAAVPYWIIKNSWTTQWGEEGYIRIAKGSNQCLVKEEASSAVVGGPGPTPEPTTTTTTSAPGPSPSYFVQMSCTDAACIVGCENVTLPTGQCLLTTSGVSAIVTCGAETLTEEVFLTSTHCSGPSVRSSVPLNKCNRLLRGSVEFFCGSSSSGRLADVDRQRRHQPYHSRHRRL

[5] = biological target: cathepsin L (Procathepsin L) (Homo sapiens, UniProt P07711); test: Inhibition of human cathepsin L assessed as off rate constant; settings: human cathepsin L enzyme, read-out: K
cathepsin L (Procathepsin L), sequence (P07711 whole entry): as the sequence (P07711 whole entry) above

Procathepsin L [6] = biological target: T1, Procathepsin L; test: Inhibition of human cathepsin L assessed as on rate constant
[7] = biological target: Cruzipain (Trypanosoma cruzi) (UniProt P25779); test: Inhibition of recombinant Trypanosoma cruzi cruzain assessed as off rate constant
Cruzipain (Trypanosoma cruzi), sequence (P25779 123-467 limits assumed): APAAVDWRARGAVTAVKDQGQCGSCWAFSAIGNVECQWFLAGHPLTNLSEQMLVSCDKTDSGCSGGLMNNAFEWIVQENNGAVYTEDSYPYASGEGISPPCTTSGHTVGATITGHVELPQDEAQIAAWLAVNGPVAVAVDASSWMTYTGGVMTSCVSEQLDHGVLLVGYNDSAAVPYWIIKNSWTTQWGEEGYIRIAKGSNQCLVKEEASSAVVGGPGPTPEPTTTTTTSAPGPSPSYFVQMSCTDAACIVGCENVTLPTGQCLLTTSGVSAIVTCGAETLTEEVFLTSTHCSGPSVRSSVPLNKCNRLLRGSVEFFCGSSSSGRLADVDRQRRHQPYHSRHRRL

[8] = biological target: Cruzipain (Trypanosoma cruzi) (UniProt P25779); test: Inhibition of recombinant Trypanosoma cruzi cruzain assessed as on rate constant

For CC(C)C[C@H](NC(=O)c1cc(C(C)(C)C)nn1C)C(=O)N(C)N(C)C#N, the K (Leishmania mexicana [1]) was 0.04 10^-6/s, the Ki (Procathepsin L [2]) was 0.501 nM and the pKi [3] was 9.7. The K (Leishmania mexicana [4]) was 0.22 10^-6/M/s.
Work on CC(C)C[C@H](NC(=O)C(F)(F)c1ccccc1)C(=O)NC1(C#N)CC1 yielded a Ki (Procathepsin L [2]) of 31.6 nM, a pKi [3] of 6.8 and a Ki (Cruzipain) of 63.1 nM.
Compound N#CCNC(=O)[C@H](Cc1ccccc1)NC(=O)c1c[nH]c(=O)[nH]c1=O has a Ki (Procathepsin L [2]) of 1000 nM, a pKi [3] of 6.5 and a Ki (Cruzipain) of 1260 nM.
In the case of N#CCNC(=O)[C@@H](Cc1ccccc1)NC(=O)c1ccccc1, the Ki (Procathepsin L [2]) is reported as 1580 nM, the pKi [3] is reported as 5.9 and the Ki (Cruzipain) is reported as 6310 nM.
With CN(C#N)N(C)C(=O)[C@H](Cc1ccccc1)NC(=O)c1cc(C(C)(C)C)nn1C the koff [5] was 8e-08 s⁻¹, the K (Leishmania mexicana [1]) was 0.2 10^-6/s and the Ki (Procathepsin L [2]) was 0.126 nM. The pKi [3] was 9.7, the K (Leishmania mexicana [4]) was 1 10^-6/M/s and the K (Procathepsin L [6]) was 700000 M⁻¹ s⁻¹. The K [7] was 12 10^-6/s and the K [8] was 7.7e+06 M⁻¹ s⁻¹.
N#CC1(NC(=O)C2(NC(=O)c3ccccc3)CCCC2)CC1 showed a Ki (Procathepsin L [2]) of 3980 nM, a pKi [3] of 5.2 and a Ki (Cruzipain) of 12600 nM.
In the case of Cn1nc(C(C)(C)C)cc1C(=O)N[C@@H](Cc1cccc(Cl)c1)C(=O)NCC#N, the Ki (Procathepsin L [2]) is reported as 1.26 nM and the pKi [3] is reported as 6.6.
In the case of CC(C)C[C@H](NC(=O)C(C)(C)c1ccccc1)C(=O)NC1(C#N)CC1, the Ki (Procathepsin L [2]) is reported as 39.8 nM, the pKi [3] is reported as 6.4 and the Ki (Cruzipain) is reported as 158 nM.
In the case of N#CC1(NC(=O)[C@H](Cc2ccccc2)NC(=O)c2ccccc2)CC1, the Ki (Procathepsin L [2]) is reported as 50.1 nM and the pKi [3] is reported as 6.8.
In the case of CC(C)(C)OC(=O)N[C@@H](Cc1cccc(Cl)c1)C(=O)NCC#N, the Ki (Procathepsin L [2]) is reported as 251 nM and the pKi [3] is reported as 5.2.
Compound N#CCNC(=O)[C@H](Cc1ccccc1)NC(=O)c1ccco1 has a Ki (Procathepsin L [2]) of 501 nM and a pKi [3] of 6.3.
N#CCNC(=O)[C@H](Cc1ccccc1)NC(=O)c1cncnc1 showed a Ki (Procathepsin L [2]) of 1000 nM, a pKi [3] of 6.2 and a Ki (Cruzipain) of 5010 nM.
In the case of N#CCNC(=O)[C@H](Cc1ccc(OC(=O)c2ccccc2)cc1)NC(=O)c1ccccc1, the Ki (Procathepsin L [2]) is reported as 251 nM and the pKi [3] is reported as 6.9.
For N#CCNC(=O)[C@H](Cc1ccc(O)cc1)NC(=O)c1ccccc1, the Ki (Procathepsin L [2]) was 79.4 nM and the pKi [3] was 5.7.
Compound CC(C)C[C@H](NC(=O)c1ccccc1)C(=O)NC1(C#N)CC1 has a pKi [3] of 6.8.
N#CCNC(=O)[C@H](Cc1ccccc1)NC(=O)c1ccccc1 gave a Ki (Procathepsin L [2]) of 126 nM and a pKi [3] of 6.6.
In the case of Cn1nc(C(C)(C)C)cc1C(=O)N[C@@H](Cc1ccccc1)C(=O)NCC#N, the Ki (Procathepsin L [2]) is reported as 3.98 nM and the pKi [3] is reported as 7.4.
CC(C)C[C@H](NC(=O)C1(c2ccccc2)CC1)C(=O)NC1(C#N)CC1 gave a Ki (Procathepsin L [2]) of 5.01 nM, a pKi [3] of 7.2 and a Ki (Cruzipain) of 25.1 nM.
Compound N#CCNC(=O)[C@H](Cc1c[nH]c2ccccc12)NC(=O)c1ccccc1 has a Ki (Procathepsin L [2]) of 50.1 nM and a pKi [3] of 6.1.
Work on CC(C)C[C@H](NC(=O)OC(C)(C)C)C(=O)NC1(C#N)CC1 yielded a Ki (Procathepsin L [2]) of 631 nM and a pKi [3] of 6.3.
CC(C)C[C@H](NC(=O)OC(C)(C)C)C(=O)NCC#N gave a Ki (Procathepsin L [2]) of 2510 nM and a pKi [3] of 5.8.
Compound N#CCNC(=O)[C@H](Cc1ccccc1)NC(=O)c1cnccn1 has a Ki (Procathepsin L [2]) of 1000 nM, a pKi [3] of 6.2 and a Ki (Cruzipain) of 6310 nM.
For N#CCNC(=O)[C@H](Cc1ccccc1)NC(=O)c1cccs1, the Ki (Procathepsin L [2]) was 501 nM and the pKi [3] was 6.4.
N#CCNC(=O)C1(NC(=O)c2ccccc2)CCCC1 showed a Ki (Procathepsin L [2]) of 10000 nM and a pKi [3] of 4.3.
For N#CCNC(=O)[C@H](Cc1ccccc1)NC(=O)c1cncc(Br)c1, the Ki (Procathepsin L [2]) was 10 nM, the pKi [3] was 6.9 and the Ki (Cruzipain) was 158 nM.
Work on CC(C)C[C@H](NC(=O)c1cc(C(C)(C)C)nn1C)C(=O)NC1(C#N)CC1 yielded a Ki (Procathepsin L [2]) of 12.6 nM and a pKi [3] of 8.3.
In the case of CC(C)C[C@H](NC(=O)c1cc(C(C)(C)C)nn1C)C(=O)NCC#N, the Ki (Procathepsin L [2]) is reported as 25.1 nM and the pKi [3] is reported as 7.6.
N#CCNC(=O)[C@H](Cc1ccccc1)NC(=O)OCc1ccccc1 showed a Ki (Procathepsin L [2]) of 126 nM and a pKi [3] of 6.6.
Compound CC(C)C[C@H](NC(=O)C1(c2ccccc2)CCC1)C(=O)NC1(C#N)CC1 has a Ki (Procathepsin L [2]) of 5.01 nM, a pKi [3] of 7.6 and a Ki (Cruzipain) of 20 nM.
Compound CC(C)C[C@H](NC(=O)Cc1ccccc1)C(=O)NC1(C#N)CC1 has a Ki (Procathepsin L [2]) of 63.1 nM, a pKi [3] of 7.2 and a Ki (Cruzipain) of 39.8 nM.
For N#CCNC(=O)[C@H](Cc1cccc(Cl)c1)NC(=O)c1ccccc1, the Ki (Procathepsin L [2]) was 20 nM and the pKi [3] was 5.2.
In the case of CC(C)(C)OC(=O)N[C@@H](Cc1ccccc1)C(=O)NCC#N, the pKi [3] is reported as 5.8 and the Ki (Cruzipain) is reported as 2510 nM.
Compound CC[C@@H](C)[C@H](NC(=O)c1ccccc1)C(=O)NC1(C#N)CC1 has a Ki (Procathepsin L [2]) of 3160 nM, a pKi [3] of 5.5 and a Ki (Cruzipain) of 25100 nM.
Work on Cn1nc(C(C)(C)C)cc1C(=O)N[C@@H](Cc1ccccc1)C(=O)NC1(C#N)CC1 yielded a Ki (Procathepsin L [2]) of 5.01 nM and a pKi [3] of 7.3.
In the case of CC(C)(C#N)NC(=O)[C@H](Cc1ccccc1)NC(=O)c1ccccc1, the Ki (Procathepsin L [2]) is reported as 631 nM and the pKi [3] is reported as 5.7.
Work on Cn1nc(C(F)(F)F)cc1C(=O)N[C@@H](Cc1ccccc1)C(=O)NCC#N yielded a Ki (Procathepsin L [2]) of 25.1 nM, a pKi [3] of 7 and a Ki (Cruzipain) of 501 nM.
